In US9771369B2, “Compounds and methods for kinase modulation, and indications therefor” (Plexxikon Inc., priority 2014, dated 2017):

Columns and labels:
[1] = system: BaF3-FL KIT D816V or BaF3-FL KIT V560G/D816V cell line; experiment: Cell-based assays of c-Kit mutant kinase activity (cell proliferation, ATPlite); conditions: at least one of the c-kit cell assays of Example 7
Outline: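 BaF3 cells dependent on transfected full-length human KIT D816V or V560G/D816V (pCI-Neo, CMV promoter) were seeded at 1×10^4 cells/well and exposed to 8-point 1:3 dilutions from 10 μM top (0.2% DMSO) for three days at 37° C. ATPlite luminescence gave cell number; IC50 from concentration-response.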

c-kit mutant D816V = c-kit mutant D816V (Homo sapiens (Human), UniProt P10721, D816V/DEL694-753); experiment: c-Kit mutant D816V biochemical assay (AlphaScreen kinase activity)
Chain of c-kit mutant D816V (P10721 other isoform, or with tags, fused parts or gaps D816V/del 694-753): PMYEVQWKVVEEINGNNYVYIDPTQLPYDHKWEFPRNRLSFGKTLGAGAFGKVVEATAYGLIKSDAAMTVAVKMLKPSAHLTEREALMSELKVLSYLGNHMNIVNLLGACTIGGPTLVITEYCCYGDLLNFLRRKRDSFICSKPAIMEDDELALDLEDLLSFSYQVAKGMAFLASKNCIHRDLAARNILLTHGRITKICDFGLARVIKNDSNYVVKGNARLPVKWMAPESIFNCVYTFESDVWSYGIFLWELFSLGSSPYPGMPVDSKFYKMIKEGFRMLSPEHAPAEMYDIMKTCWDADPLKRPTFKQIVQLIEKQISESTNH
Outline: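 AlphaScreen with streptavidin donor and PY30 acceptor beads read phosphotyrosine on biotin-(E4Y)10 substrate (30 nM). Enzyme: E. coli-expressed N-His c-Kit D816V, residues 551-934 lacking kinase insert 694-753. Reaction 30 min at room temperature, 10 μM ATP, 5% DMSO; IC50 fitted over 8 three-fold dilutions.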

Question: CCOc1ccc(-c2[nH]c(C3CCN(c4ncnc5[nH]c(C)cc45)CC3)nc2C)cc1C [P-3125, 4-[4-[5-(4-ethoxy-3-methyl-phenyl)-4-methyl-1H-imidazol-2-yl]-1-piperidyl]-6-methyl-7H-pyrrolo[2,3-d]pyrimidine] was tested. Which IC50 [1] did it give?
Answer: Its IC50 is under 10000 nM.

Question: And the IC50 (c-kit mutant D816V)?
Answer: The IC50 was 1 to 10 µM.

Question: How did the IC50 [1] turn out when CCOc1cc(-c2[nH]c(C3CCN(c4ncnc5[nH]c(C)cc45)CC3)nc2C)ccc1C [P-3126, 4-[4-[5-(3-ethoxy-4-methyl-phenyl)-4-methyl-1H-imidazol-2-yl]-1-piperidyl]-6-methyl-7H-pyrrolo[2,3-d]pyrimidine] was run?
Answer: The IC50 was under 10000 nM.

Question: What about the IC50 (c-kit mutant D816V) of the same compound?
Answer: Its IC50 is 0.0001 to 1 µM.

Question: What does the source list for Cc1cc2c(N3CCC(c4nc(C)c(-c5ccc6c(c5)OC(F)(F)O6)[nH]4)CC3)ncnc2[nH]1 [P-3127, 4-[4-[5-(2,2-difluoro-1,3-benzodioxol-5-yl)-4-methyl-1H-imidazol-2-yl]-1-piperidyl]-6-methyl-7H-pyrrolo[2,3-d]pyrimidine]?
Answer: IC50 [1]: < 10000 nM; IC50 (c-kit mutant D816V): 1 to 10 µM

Question: With COc1ccc(-c2[nH]c(C3CCN(c4ncnc5[nH]c(C)cc45)CC3)nc2C)cc1C [P-3128, 4-[4-[5-(4-methoxy-3-methyl-phenyl)-4-methyl-1H-imidazol-2-yl]-1-piperidyl]-6-methyl-7H-pyrrolo[2,3-d]pyrimidine] as the compound, how does the IC50 [1] read?
Answer: The IC50 was under 10000 nM.

Question: And the IC50 (c-kit mutant D816V)?
Answer: Its IC50 is 0.0001 to 1 µM.

Question: Which results are given for COc1cc(-c2[nH]c(C3CCN(c4ncnc5[nH]c(C)cc45)CC3)nc2C)ccc1C [P-3129, 4-[4-[5-(3-methoxy-4-methyl-phenyl)-4-methyl-1H-imidazol-2-yl]-1-piperidyl]-6-methyl-7H-pyrrolo[2,3-d]pyrimidine]?
Answer: IC50 [1]: < 10000 nM; IC50 (c-kit mutant D816V): 1 to 10 µM

Question: How did the IC50 [1] turn out when COc1ccc(-c2[nH]c(C3CCN(c4ncnc5[nH]c(C)cc45)CC3)nc2C)cc1 [P-3130, 4-[4-[5-(4-methoxyphenyl)-4-methyl-1H-imidazol-2-yl]-1-piperidyl]-6-methyl-7H-pyrrolo[2,3-d]pyrimidine] was run?
Answer: The IC50 was under 10000 nM.

Question: What about the IC50 (c-kit mutant D816V) of the same compound?
Answer: The IC50 was 1 to 10 µM.

Question: For COc1cccc(-c2[nH]c(C3CCN(c4ncnc5[nH]c(C)cc45)CC3)nc2C)c1 [P-3131, 4-[4-[5-(3-methoxyphenyl)-4-methyl-1H-imidazol-2-yl]-1-piperidyl]-6-methyl-7H-pyrrolo[2,3-d]pyrimidine], which IC50 [1] is on record?
Answer: Its IC50 is under 10000 nM.

Question: What about the IC50 (c-kit mutant D816V) of the same compound?
Answer: The IC50 was 0.0001 to 1 µM.

Question: Which results are given for Cc1nc(C2CCN(c3ncnc4[nH]c(-c5ccc(C#N)cc5)cc34)CC2)[nH]c1-c1ccc2c(c1)OCCO2 [P-3132, 4-[4-[4-[5-(2,3-dihydro-1,4-benzodioxin-6-yl)-4-methyl-1H-imidazol-2-yl]-1-piperidyl]-7H-pyrrolo[2,3-d]pyrimidin-6-yl]benzonitrile]?
Answer: IC50 [1]: < 10000 nM; IC50 (c-kit mutant D816V): 0.0001 to 1 µM

Question: What does the source list for Cc1nc(C2CCN(c3ncnc4[nH]c(-c5cnn(C(F)F)c5)cc34)CC2)[nH]c1-c1ccc2c(c1)OCCO2 [P-3133, 6-[1-(difluoromethyl)pyrazol-4-yl]-4-[4-[5-(2,3-dihydro-1,4-benzodioxin-6-yl)-4-methyl-1H-imidazol-2-yl]-1-piperidyl]-7H-pyrrolo[2,3-d]pyrimidine]?
Answer: IC50 [1]: < 10000 nM; IC50 (c-kit mutant D816V): 0.0001 to 1 µM

Question: How did the IC50 [1] turn out when COc1cc(-c2cc3c(N4CCC(c5nc(C(F)(F)F)c(-c6ccc(C)cc6)[nH]5)CC4)ncnc3[nH]2)ccn1 [P-3134, 6-(2-methoxy-4-pyridyl)-4-[4-[5-(p-tolyl)-4-(trifluoromethyl)-1H-imidazol-2-yl]-1-piperidyl]-7H-pyrrolo[2,3-d]pyrimidine] was run?
Answer: The IC50 was under 10000 nM.

Question: What about the IC50 (c-kit mutant D816V) of the same compound?
Answer: Its IC50 is 0.0001 to 1 µM.

Question: For Cc1ccc(-c2[nH]c(C3CCN(c4ncnc5[nH]c(-c6ccc(F)cc6)cc45)CC3)nc2C(F)(F)F)cc1 [P-3135, 6-(4-fluorophenyl)-4-[4-[5-(p-tolyl)-4-(trifluoromethyl)-1H-imidazol-2-yl]-1-piperidyl]-7H-pyrrolo[2,3-d]pyrimidine], which IC50 [1] is on record?
Answer: Its IC50 is under 10000 nM.

Question: What about the IC50 (c-kit mutant D816V) of the same compound?
Answer: The IC50 was 0.0001 to 1 µM.

Question: Cc1nc(C2CCN(c3ncnc4[nH]c(-c5ccc(F)cc5)cc34)CC2)[nH]c1-c1ccc(C(F)(F)F)cc1 [P-3136, 6-(4-fluorophenyl)-4-[4-[4-methyl-5-[4-(trifluoromethyl)phenyl]-1H-imidazol-2-yl]-1-piperidyl]-7H-pyrrolo[2,3-d]pyrimidine] was tested. Which IC50 [1] did it give?
Answer: The IC50 was under 10000 nM.

Question: And the IC50 (c-kit mutant D816V)?
Answer: The IC50 was 0.0001 to 1 µM.

Question: How did the IC50 [1] turn out when Cc1nc(C2CCN(c3ncnc4[nH]c(-c5ccc(C#N)cc5)cc34)CC2)[nH]c1-c1ccc(C(F)(F)F)cc1 [P-3137, 4-[4-[4-[4-methyl-5-[4-(trifluoromethyl)phenyl]-1H-imidazol-2-yl]-1-piperidyl]-7H-pyrrolo[2,3-d]pyrimidin-6-yl]benzonitrile] was run?
Answer: The IC50 was under 10000 nM.

Question: What about the IC50 (c-kit mutant D816V) of the same compound?
Answer: The IC50 was 0.0001 to 1 µM.

Question: How did the IC50 [1] turn out when Cc1nc(C2CCN(c3ncnc4[nH]c(-c5cnn(C(F)F)c5)cc34)CC2)[nH]c1-c1ccc2c(c1)OCO2 [P-3138, 4-[4-[5-(1,3-benzodioxol-5-yl)-4-methyl-1H-imidazol-2-yl]-1-piperidyl]-6-[1-(difluoromethyl)pyrazol-4-yl]-7H-pyrrolo[2,3-d]pyrimidine] was run?
Answer: The IC50 was under 10000 nM.

Question: And the IC50 (c-kit mutant D816V)?
Answer: The IC50 was 0.0001 to 1 µM.

Question: What does the source list for CCOc1ccc(-c2[nH]c(C3CCN(c4ncnc5[nH]c(-c6cnn(C(F)F)c6)cc45)CC3)nc2C)cc1C [P-3139, 6-[1-(difluoromethyl)pyrazol-4-yl]-4-[4-[5-(4-ethoxy-3-methyl-phenyl)-4-methyl-1H-imidazol-2-yl]-1-piperidyl]-7H-pyrrolo[2,3-d]pyrimidine]?
Answer: IC50 [1]: < 10000 nM; IC50 (c-kit mutant D816V): 0.0001 to 1 µM

Question: How did the IC50 [1] turn out when CCC1(c2nc(C)c(-c3ccc(OC)cc3)[nH]2)CCN(c2ncnc3[nH]c(C)cc23)CC1 [P-3140, 4-[4-ethyl-4-[5-(4-methoxyphenyl)-4-methyl-1H-imidazol-2-yl]-1-piperidyl]-6-methyl-7H-pyrrolo[2,3-d]pyrimidine] was run?
Answer: Its IC50 is under 10000 nM.

Question: And the IC50 (c-kit mutant D816V)?
Answer: The IC50 was 0.0001 to 1 µM.

Question: For CCC1(c2nc(C)c(-c3ccc(OC)c(C)c3)[nH]2)CCN(c2ncnc3[nH]c(C)cc23)CC1 [P-3141, 4-[4-ethyl-4-[5-(4-methoxy-3-methyl-phenyl)-4-methyl-1H-imidazol-2-yl]-1-piperidyl]-6-methyl-7H-pyrrolo[2,3-d]pyrimidine], which IC50 [1] is on record?
Answer: Its IC50 is under 10000 nM.

Question: What about the IC50 (c-kit mutant D816V) of the same compound?
Answer: The IC50 was 0.0001 to 1 µM.

Question: Which IC50 [1] does the source give for CCOc1ccc(-c2[nH]c(C3(CC)CCN(c4ncnc5[nH]c(C)cc45)CC3)nc2C)cc1C [P-3142, 4-[4-[5-(4-ethoxy-3-methyl-phenyl)-4-methyl-1H-imidazol-2-yl]-4-ethyl-1-piperidyl]-6-methyl-7H-pyrrolo[2,3-d]pyrimidine] here?
Answer: Its IC50 is under 10000 nM.

Question: And the IC50 (c-kit mutant D816V)?
Answer: The IC50 was 0.0001 to 1 µM.

Question: What does the source list for CCC1(c2nc(C)c(-c3ccc4c(c3)OCO4)[nH]2)CCN(c2ncnc3[nH]c(C)cc23)CC1 [P-3143, 4-[4-[5-(1,3-benzodioxol-5-yl)-4-methyl-1H-imidazol-2-yl]-4-ethyl-1-piperidyl]-6-methyl-7H-pyrrolo[2,3-d]pyrimidine]?
Answer: IC50 [1]: < 10000 nM; IC50 (c-kit mutant D816V): 0.0001 to 1 µM

Question: For CCC1(c2nc(C)c(-c3ccc4c(c3)OCCO4)[nH]2)CCN(c2ncnc3[nH]c(C)cc23)CC1 [P-3144, 4-[4-[5-(2,3-dihydro-1,4-benzodioxin-6-yl)-4-methyl-1H-imidazol-2-yl]-4-ethyl-1-piperidyl]-6-methyl-7H-pyrrolo[2,3-d]pyrimidine], which IC50 [1] is on record?
Answer: Its IC50 is under 10000 nM.

Question: What about the IC50 (c-kit mutant D816V) of the same compound?
Answer: Its IC50 is 0.0001 to 1 µM.

Question: With CCOc1ccc(-c2[nH]c(C3(CC)CCN(c4ncnc5[nH]c(C)cc45)CC3)nc2C)cc1 [P-3145, 4-[4-[5-(4-ethoxyphenyl)-4-methyl-1H-imidazol-2-yl]-4-ethyl-1-piperidyl]-6-methyl-7H-pyrrolo[2,3-d]pyrimidine] as the compound, how does the IC50 [1] read?
Answer: The IC50 was under 10000 nM.

Question: And the IC50 (c-kit mutant D816V)?
Answer: Its IC50 is 0.0001 to 1 µM.

Question: What does the source list for COc1ccc(-c2[nH]c(C3CCN(c4ncnc5[nH]c(-c6ccnc(OC)c6)cc45)CC3)nc2C(F)(F)F)cc1 [P-3146, 4-[4-[5-(4-methoxyphenyl)-4-(trifluoromethyl)-1H-imidazol-2-yl]-1-piperidyl]-6-(2-methoxy-4-pyridyl)-7H-pyrrolo[2,3-d]pyrimidine]?
Answer: IC50 [1]: < 10000 nM; IC50 (c-kit mutant D816V): 0.0001 to 1 µM

Question: Which IC50 [1] does the source give for COc1ccc(-c2[nH]c(C3CCN(c4ncnc5[nH]c(-c6ccc(C#N)cc6)cc45)CC3)nc2C(F)(F)F)cc1 [P-3148, 4-[4-[4-[5-(4-methoxyphenyl)-4-(trifluoromethyl)-1H-imidazol-2-yl]-1-piperidyl]-7H-pyrrolo[2,3-d]pyrimidin-6-yl]benzonitrile] here?
Answer: Its IC50 is under 10000 nM.

Question: And the IC50 (c-kit mutant D816V)?
Answer: The IC50 was 0.0001 to 1 µM.

Question: What does the source list for COc1cc(-c2cc3c(N4CCC(c5nc(C)c(-c6ccc(C(F)(F)F)cc6)[nH]5)CC4)ncnc3[nH]2)ccn1 [P-3149, 6-(2-methoxy-4-pyridyl)-4-[4-[4-methyl-5-[4-(trifluoromethyl)phenyl]-1H-imidazol-2-yl]-1-piperidyl]-7H-pyrrolo[2,3-d]pyrimidine]?
Answer: IC50 [1]: < 10000 nM; IC50 (c-kit mutant D816V): 0.0001 to 1 µM

Question: Which IC50 [1] does the source give for Cc1cc2c(N3CCC(C)(c4nc(C)c(-c5ccc6c(c5)OCO6)[nH]4)CC3)ncnc2[nH]1 [P-3150, 4-[4-[5-(1,3-benzodioxol-5-yl)-4-methyl-1H-imidazol-2-yl]-4-methyl-1-piperidyl]-6-methyl-7H-pyrrolo[2,3-d]pyrimidine] here?
Answer: The IC50 was under 10000 nM.

Question: And the IC50 (c-kit mutant D816V)?
Answer: The IC50 was 0.0001 to 1 µM.

Question: Cc1cc2c(N3CCC(C)(c4nc(C)c(-c5ccc6c(c5)OCCO6)[nH]4)CC3)ncnc2[nH]1 [P-3151, 4-[4-[5-(2,3-dihydro-1,4-benzodioxin-6-yl)-4-methyl-1H-imidazol-2-yl]-4-methyl-1-piperidyl]-6-methyl-7H-pyrrolo[2,3-d]pyrimidine] was tested. Which IC50 [1] did it give?
Answer: Its IC50 is under 10000 nM.

Question: What about the IC50 (c-kit mutant D816V) of the same compound?
Answer: The IC50 was 0.0001 to 1 µM.

Question: Which IC50 [1] does the source give for Cc1cc2c(N3CCC(C)(c4nc(C)c(-c5ccc6c(c5)OC(F)(F)O6)[nH]4)CC3)ncnc2[nH]1 [P-3152, 4-[4-[5-(2,2-difluoro-1,3-benzodioxol-5-yl)-4-methyl-1H-imidazol-2-yl]-4-methyl-1-piperidyl]-6-methyl-7H-pyrrolo[2,3-d]pyrimidine] here?
Answer: The IC50 was under 10000 nM.

Question: What about the IC50 (c-kit mutant D816V) of the same compound?
Answer: Its IC50 is 0.0001 to 1 µM.
